Data reported in publication PMC6881072, “The repositioning of epigenetic probes/inhibitors identifies new anti-schistosomal lead compounds and chemotherapeutic targets” (PLoS Neglected Tropical Diseases, 2019).
Where two headings read alike, the source gives them in different places.

What was measured:
S. mansoni schistosomula = assay: In vitro schistosomula screening (Roboworm platform), phenotype and motility; assay type: cell-based, Schistosoma mansoni; details: for EC50: Schistosoma mansoni, two-fold titration 10 μM–0.625 μM, single replicate, approximate
Protocol: Briefly, 384-well tissue culture plates (Perkin Elmer, cat 6007460), containing 20 μl of Basch medium, were wet-stamped using a Biomek NX^P liquid handling platform (Beckman Coulter, UK) with negative (0.625% dimethyl sulfoxide, DMSO) and positive controls (AUR and PZQ at 10 μM final concentration in 0.625% DMSO) as well as 37 SGC compounds (at 10 μM final concentration in 0.625% DMSO). […] To each pre-loaded well (single concentration or titration screens), a total of 100–120 mechanically transformed schistosomula (in 60 μl) were deposited via a WellMate (Thermo Scientific, UK). Schistosomula/compound co-cultures (80 μl in total) were then incubated at 37°C for 72 h in a humidified atmosphere containing 5% CO2. At 72 h, tissue culture plates (containing schistosomula/compound co-cultures) were imaged under the same conditions (37°C in a humidified atmosphere containing 5% CO2) using an ImageXpressXL high content imager (Molecular Devices, UK) with subsequent images processed for phenotype and motility as previously reported and successfully implemented by us at Aberystwyth University. Single point schistosomula screens (10 μM) were repeated two or three times whereas dose response titrations were performed once. Zˊ values obtained from all schistosomula screens ranged from 0.27–0.48 (mean = 0.40) for phenotype and 0.41–0.56 (mean = 0.48) for motility.

[1] = tested on: adult male and female schistosome pairs; assay: In vitro adult schistosome screening (WHO/TDR motility, egg counts); assay type: cell-based, Schistosoma mansoni; details: for EC50: Schistosoma mansoni, motility
Protocol: In vitro screening was replicated three times on different dates to account for any biological variation. Briefly three adult worm pairs/well (48-well tissue culture plate format) were placed into DMEM (Gibco, Paisley, UK) supplemented with 10% (v/v) FCS (Gibco, Paisley, UK), 1% (v/v) L-glutamine (Gibco, Paisley, UK) and an antibiotic mixture (150 Units/ml penicillin and 150 μg/ml streptomycin; Gibco, UK). DMSO (0.5% negative control), AUR (10 μM concentration in 0.5% DMSO; positive control) and two-fold titrations of SGC compounds (50 μM– 6.25 μM or 50 μM– 0.05 μM; in 0.5% DMSO max) were added, and together, these adult worm/compound co-cultures were incubated at 37°C for 72 h in a humidified atmosphere containing 5% CO2. Following compound incubation, WHO/TDR readouts of adult worm motility, abundance of H3K36me2 (LLY-507 and BAY-598 treated worms only) in histone extracts and egg counts/well were recorded at 72 h.

[2] = tested on: in vitro laid eggs (IVLEs) of adult worm pairs; assay: Vitellocyte and egg volume quantification of in vitro laid eggs (LSCM); assay type: cell-based, Schistosoma mansoni; details: 0.2 μM, 72 h, n = 10 eggs
Text: Fluorescent microscopic images (10 eggs per treatment) were captured on a Leica TCS SP8 super resolution laser confocal microscope fitted with a 63 X (water immersion) objective using the Leica Application Suite X. Green (egg autofluorescence) fluorescence was visualised with an argon or diode-pumped, solid state (DPSS) laser at 488 nm. DAPI was visualised using a 405 nm blue diode laser. The number of vitellocytes (DAPI^+ cells) and overall volume (mapped by the green autofluorescence) for individual eggs were calculated using IMARIS 7.3 software (Bitplane).

[3] = HepG2 cell cytotoxicity, MTT assay; assay type: cell-based, Human; details: human, HepG2 cells, read-out: CC50 (HepG2) (95% Confidence Intervals)
Protocol: (§1) Human Hepatocyte Carcinoma (HepG2) cells (Sigma Aldrich, UK) were utilized to assess SGC epigenetic probe cell cytotoxicity in the application of the MTT (3-(4,5-dimethylthiazol-2-yl)-2,5-diphenyltetrazolium bromide) assay. Briefly, cells were passaged at 70–80% confluence and seeded (20,000 cells/ 50 μL per well) in a 96-well, black-sided, clear-bottomed falcon plate (Fisher Scientific, UK) with the final plate column (8 wells) being treated as a blank (media only). Following a 24 h incubation (5% CO2, 37°C, humidified), HepG2 cells were then treated with 50 μL of pre-warmed media (37°C) containing SGC EPs/EIs at 200 μM to 0.02 μM (final concentration 100 μM, 10 μM, 1 μM, 0.1 μM and 0.01 μM). Three positive (1% Triton X-100) and negative (1% DMSO) control wells per plate were additionally included.
(§2) After addition of compounds, each plate was then incubated for a further 20 h before application of MTT for assessment of overt compound cytotoxicity using the MTT assay. The MTT assay was read using the POLARstar Omega (BMG LabTech, UK) plate reader at an absorbance of 570 nm. CC50s were calculated in GraphPad Prism.

HepG2 cells = assay: HepG2 cell cytotoxicity, MTT assay; assay type: cell-based, Human; details: 20 h, read-out: CC50 (HepG2) (95% Confidence Intervals)
Protocol: as §1, §2

[4] = cited from earlier work
H3K36me2 = H3K36me2 detection in adult worm histone extracts; assay type: cell-based, Schistosoma mansoni; details: siRNA 50 ng/μl, adult worms, vs siLuc
Protocol: LLY-507 (6.25 μM), BAY-598 (25 μM) or siSmp_000700 treated male and female worms (alongside DMSO or siLuc controls; 21 individuals per condition) were homogenized with a TissueLyser (Qiagen) and total histones extracted using the EpiQuik^TM Total Histone Extraction Kit (Epigentek). Levels of H3K36me2 in adult histone extracts were measured using the EpiQuik^TM Global Di-Methyl Histone H3-K36 Quantification Kit (Fluorimetric, Epigentek). Technical duplicates of three biological replicates of each treatment were analysed according to the manufacturer’s instructions. Fluorescent readings (530EX/590EM nm) were obtained using a POLARstar Omega (BMG Labtech, UK) microtiter plate reader. Fluorescent values of the samples were corrected by subtracting the fluorescent readings of the blank (buffer only, provided in the kit). The mean of the adjusted control values (DMSO for LLY-507/BAY-598 treated worms and siLuc for siSmp_000700 treated worms) was set at 100% H3K36me2 and the standard deviation (SD) was calculated from the normalised values.

adult schistosome pairs = assay: RNAi of adult schistosome pairs: motility and egg counts; assay type: cell-based, Schistosoma mansoni; details: 168 h (7 days post-treatment), vs siLuc
Protocol: (§3) Following the perfusion of 7 wks infected mice, adult worms were recovered and RNAi performed as previously described. Briefly, smp_000700 and non-specific luciferase siRNA duplexes were purchased from Sigma (siSmp_000700 = sense: GGUAAUCGGUCAUGUGUAU[dT][dT] and anti-sense: AUACACAUGACCGAUUACC[dT][dT]; siLuc = sense CUUACGCUGAGUACUUCGA[dT][dT] and anti-sense UCGAAGUACUCAGCGUAAG[dT][dT]) and used at a final concentration of 50 ng/μl. Mixed sex adult worm pairs (for knockdown assessment by quantitative reverse transcription PCR, qRT-PCR) were cultured at 37°C in DMEM supplemented with 10% FCS, 2 mM L-glutamine, […] HEPES (Sigma-Aldrich, UK), 100 Units/ml penicillin and 100 μg/ml streptomycin in an atmosphere of 5% CO2 with a 70% media exchange performed every 48 h. The experiment was replicated three times (21 worm pairs/replicate). Quantitative reverse transcription PCR (qRT-PCR) of smp_000700 abundance was performed at 48 h and adult worm motility as well as egg counts were quantified at 168 h. Levels of H3K36me2 detected in schistosome histone extracts were assessed at 72 h.

smp_000700 = assay: RNAi knockdown assessment by qRT-PCR; assay type: cell-based, Schistosoma mansoni; details: 48 h, vs siLuc
Protocol: as §3
Following RNAi with siSmp_000700 and siLuc, mixed-sex adult worms were incubated for a total of 48 h before processing them for RNA isolation. […]

Molecule | schistosomula phenotype by microscopic assessment (S. mansoni schistosomula; 10 μM, 72 h) | SELECTIVITY INDEX Schistosomula Motility (S. mansoni schistosomula; CC50 HepG2 / schistosomula motility EC50) | SELECTIVITY INDEX Schistosomula Phenotype (S. mansoni schistosomula; CC50 HepG2 / schistosomula phenotype EC50) | EC50 (S. mansoni schistosomula; 72 h, read-out: SCHISTOSOMULA EC50 Motility) [µM] | EC50 (S. mansoni schistosomula; 72 h, read-out: SCHISTOSOMULA EC50 Phenotype) [µM] | adult worm motility and IVLE production ([1]; 3.13 μM and 6.25 μM, 72 h, vs DMSO) | SELECTIVITY INDEX Adult Females ([1]; CC50 HepG2 / adult female EC50) | SELECTIVITY INDEX Adult Males ([1]; CC50 HepG2 / adult male EC50) | EC50 ([1]; 72 h, adult females, read-out: ADULT EC50 (95% Confidence Intervals) Females) [µM] | EC50 ([1]; 72 h, adult males, read-out: ADULT EC50 (95% Confidence Intervals) Males) [µM] | number of vitellocytes per egg (packaging into IVLEs) [2] | overall egg volume [2] | CC50 at 20 h [3] [µM] | CC50 (HepG2 cells) [µM] | cell permeability [4] | reduction in H3K36me2 (H3K36me2) [%] | adult worm motility after RNAi (adult schistosome pairs) | egg production after RNAi (adult schistosome pairs) | reduction of smp_000700 mRNA abundance (KD) (smp_000700) [%]
CCOC(=O)CCNc1cc(N2CCc3ccccc3CC2)nc(-c2ccccn2)n1 [GSK-J4, ethyl 3-[[2-pyridin-2-yl-6-(1,2,4,5-tetrahydro-3-benzazepin-3-yl)pyrimidin-4-yl]amino]propanoate] | phenotypes comparable to auranofin | 16.55 | 18.62 | 6.04 | 5.37 | led to adult worm motility and IVLE deficiencies | 8.78 | 25.49 | 11.4 | 3.92 | significantly inhibited the packaging | no difference | > 50 | > 100 | cell-permeable | – | – | – | –
siSmp_000700: siRNA duplex directed against smp_000700; sense GGUAAUCGGUCAUGUGUAU[dT][dT] (antisense AUACACAUGACCGAUUACC; 3' dTdT overhangs, further chemistry not given here) | – | – | – | – | – | – | – | – | – | – | – | – | – | – | – | 15 | significant reduction in adult worm motility | egg production defects | 66
